In data set [1] the test system is mouse. The data set can be described thus: traction test, mouse. Type of data set: in vivo, CD1 (Charles RIVER) mice. The following applies: po, orally, read-out: Traction AD 50. From the text:
(§1) The neuroloptic effects of the compounds according to the invention have been shown with respect to the CD rat (Charles RIVER) taken orally in the catalepsy test according to S. COURVOISIER, R. DUCROT, and L. JULOU, in Psychotropic Drugs, S. GARATTINI and V. GHETTI, Edit.--ELSEVIER Publ. Co., AMSTERDAM, LONDON, NEW YORK, PRINCETON, 1957 P. 373 and also in the traction test of CD1 (Charles RIVER) mice taken orally S. COURVOISIER, Quart. Rev. Psychiat. Neurol. 17, 25 (1956), on the one hand and also in the spontaneous motility test.

A further data set relates to head twitch. Kind of data set: anti-serotonine activity, head twitch. In kind it is in vivo, CD 1 (Charles RIVER) mice. To be noted: Mus musculus, po; mice, orally; read-out: "Head-twitch" AD 50. The text has this: (§2) The anti-serotonine activities of the compounds according to the invention have been shown by oral administration to the CD (Charles RIVER) rats using the technique of the serotonine plantar oedema (W. Theobald and R. Domenjoz--Arzneimittel Forsch, 8, 18, 1958 and with the CD 1 (Charles RIVER) mice using the technique known as "head twitch" according to S. J. Corne, R. W. Pickering and B. T. Warner, Brit. J. Pharmacol., 20, 106, (1963). The anti-serotonine activity has also been determined on the one hand on the tricoloured guinea-pig, given intravenously, according to a method derived from H. Konzet and R. Rossler, Arch. exp. Pathol, Pharmakol., 195, 71, (1940) and on the other hand in vitro with respect to the serotonine spasm of the isolated uterus of the rat according to the technique of A. Fanchamps, W. Doepfener, H. Weidman and A. Cerletti, Schw. Med. Worsch, 90, 1940, (1960).

The test system of the next data set is dogs. The data set can be described thus: anti-emetic activity, apomorphine vomiting test on dogs. In kind it is in vivo. To be noted: for ED50: Canis lupus familiaris, po, read-out: Anti-emetic activity on dogs ED 50. From the text: The anti-emetic properties of the compounds according to the invention have been shown by oral administration of apomorphine to dogs in the vomiting test according to G. Chen and C. J. Ensor, Pharmacol. exp. Therap., 98, 24 (1950).

A further data set has as its system rat. Kind of data set: catalepsy test, rat. In kind it is in vivo, CD rat (Charles RIVER). The following applies: po, orally, read-out: Catalepsy AD 50.
Description: as §1

A further data set deals with serotonine bronchospasms. The data set can be described thus: anti-serotonine activity, serotonine bronchospasms. In kind it is in vivo, tricoloured guinea-pig. To be noted: Cavia porcellus, iv; guinea pig, intravenously; read-out: Serotonine bronchospasms ED 50.
Description: as §2

Data set [2] can be described thus: acute toxicity, LD 50, CD 1 mice. To be noted: mouse, in vivo. In kind it is in vivo. From the text: The acute toxicities of the compounds according to the invention have been determined on CD 1 (Charles RIVER) mice by intravenous and oral methods. The LD 50 of each compound has been calculated by the cumulative method of J. J. Reed and H. Muench, (Amer. J. Hyg., 1938, 27, 493).

Another data set relates to mice. The data set can be described thus: analgesic activity, painful abdominal torsions test with phenylbenzoquinone. The following applies: Mus musculus, po; mice, orally; read-out: Phenylbenzoquinone test on mice AD 50. Type of data set: in vivo, CD 1 (Charles RIVER) mice. The text has this:
The analgesic properties of the products according to the invention have been shown with CD 1 (Charles RIVER) mice in the painful abdominal torsions test with phenylbenzoquinone according to the technique of E. Siegmund, R. Cadmus and Go.Lu--Proc. Soc. Exp. Biol. Med., 95, 729, (1957).

Data set [3] has as its system isolated duodenum of the rabbit (acetylcholine). Kind of data set: spasmolytic effect on isolated duodenum, acetylcholine spasm. In kind it is cell-based. To be noted: Oryctolagus cuniculus, read-out: Spasmolytic effects EC 50 with respect to acetylcholine. From the text: (§3) Ges. Physiol., 102, 123, (1904) with respect to the spasms of the isolated duodenum of rabbits caused either by acetylchlorine for the spasmolytic nemotropes or by barium chloride for the spasmolytic musculotropes.

The test system of data set [4] is serotonine plantar oedema. Kind of data set: anti-serotonine activity, serotonine plantar oedema. In kind it is in vivo, CD (Charles RIVER) rats. The following applies: po; rat, orally; read-out: Serotonine plantar oedema AD 50.
Description: as §2

The subject of data set [5] is isolated duodenum of the rabbit (barium chloride). The data set can be described thus: spasmolytic effect on isolated duodenum, barium chloride spasm. In kind it is cell-based. To be noted: Oryctolagus cuniculus, read-out: Spasmolytic effects EC 50 with respect to barium chloride.
Description: as §3

The next data set can be described thus: solubility. Type of data set: physicochemical.
Data set [6] has as its system mouse. The data set can be described thus: spontaneous motility test (hypomotility), mouse. In kind it is in vivo, mice. To be noted: po, 1 h, orally, 60 minutes before measuring, 50% reduction of mean motility, first 5 minutes, read-out: Hypomotility ED 50.
Description: as §1
This latter technique comprises keeping an account of the displacements of the mice by means of a floor of metal strips which enables the spontaneous activity of the animals to be recorded during the first 5 minutes subsequent to their being introduced into the measuring chamber. The products are dispensed 60 minutes before measuring is effected and 10 mice are used per dose. The results are expressed in ED 50 which represents the dose of substance capable of reducing the mean motility of the treated animals by 50% relative to that of the sample group which has only received the dispensing carrier.

Where [7] appears, read: intravenous, read-out: Acute toxicity for mice LD 50, intravenous.
Where [8] appears, read: oral, read-out: Acute toxicity for mice LD 50, orally.

Molecules are shown by their SMILES. ≈ marks a conversion by molar mass, not a printed value. Counter-ions that a name gives are not always drawn. Like-named read-outs stand apart in the source and are kept apart here.

Take `CSc1c(Cl)nc(N)nc1N1CCN(C)CC1` [Example 6, 2-Amino-4-N-methylpiperazino-6-chloro-5-methylthio-pyrimidine hydrochloride]: the ED50 was above 100 mg/kg in the data set with mouse [1]; 30 mg/kg in the data set on head twitch; 0.11 mg/kg in the data set on dogs; 100 mg/kg in the data set with rat; 1.2 mg/kg in the data set on serotonine bronchospasms. Moreover, the LD50 in data set [2] (setting [7]) was 33 mg/kg; in data set [2] (setting [8]) it was around 225 mg/kg.
Consider `CNc1nc(Cl)c(SC)c(N2CCNCC2)n1` [Example 10, 2-Methylamino-4-piperazino-6-chloro-5-methylthio-pyrimidine hydrochloride], for which the values for the ED50 in the data set with mice, in the data set on dogs and in the data set on rat were 65 mg/kg, 0.07 mg/kg and 75 mg/kg, respectively. Also, in the data set on dogs (comparison within the series, dogs), the “anti-vomiting ranking” value was “the most strong anti-vomiting agents”. The LD50 in data set [2] (setting [7]) was 57 mg/kg; in data set [2] (setting [8]) it was around 225 mg/kg.
On to `CSc1c(Cl)nc(N(C)C(=O)c2ccccc2)nc1N1CCN(C)CC1` [Example 13, 2-(N-methyl-N-benzoyl)amino-4-N-methyl-piperazino-6-chloro-5-methylthio-pyrimidine hydrochloride], for which the EC50 is 4 µg/mL in data set [3] and 2.6 µg/mL in data set [5]. The ED50 is 300 mg/kg in the data set on head twitch; 1.9 mg/kg with dogs (dogs, orally, apomorphine); above 300 mg/kg in [4]. In addition, the LD50 in data set [2] (setting [7]) was 91 mg/kg; in data set [2] (setting [8]), around 600 mg/kg.
Turning to `CNc1nc(OC)c(SC)c(N2CCN(C)CC2)n1` [Example 17, 2-Methylamino-4-N-methylpiperazino-5-methyl-thio-6-methoxy-pyrimidine hydrochloride], the figures for the ED50 (with dogs; in [4]; in the data set on serotonine bronchospasms) were 1.4 mg/kg, 100 mg/kg and 3 mg/kg, respectively. The LD50 in data set [2] (setting [7]) was 58 mg/kg; in data set [2] (setting [8]) it was around 400 mg/kg.
Turning to `C=CCOc1nc(NC)nc(N2CCN(C)CC2)c1SC` [Example 19, 2-methylamino-4-N-methylpiperazino-5-methylthio-6-allyloxy-pyrimidine hydrochloride], the EC50 in data set [3] was above 5 µg/mL; in data set [5], 3.1 µg/mL. Also, the ED50 with mice was 100 mg/kg; in the data set with dogs (dogs, orally, apomorphine), 1.5 mg/kg; in [4], above 100 mg/kg. Moreover, the LD50 in data set [2] (setting [7]) was 56 mg/kg; in data set [2] (setting [8]) it was around 400 mg/kg.
For `C=CCNc1nc(Cl)c(SC)c(N2CCN(C)CC2)n1` [Example 21, 2-Allylamino-4-N-methylpiperazino-6-chloro-5-methylthio-pyrimidine], the figures for the EC50 in data set [3] and in data set [5] were 1.6 µg/mL (≈ 5.1 µM) and 1 µg/mL (≈ 3.19 µM), respectively. In addition, the “solubility in dilute hydrochloric acid” value in the data set “solubility” is “soluble”. For the same compound, the “solubility in ethanol (alcohol)” value in “solubility” was “soluble”. In addition, the solubility in water entry in the data set “solubility” is given as “water-insoluble”. For the same compound, the ED50 is 20 mg/kg in the data set on head twitch; above 100 mg/kg in the data set on mice; 0.8 mg/kg with dogs (dogs, orally, apomorphine); above 100 mg/kg in data set [4]; 28 mg/kg with mouse [6]; 300 mg/kg in the data set on rat. In the data set with serotonine bronchospasms, the ED50 came to 0.01 mg/kg. Moreover, the LD50 in [2] (setting [7]) is 46 mg/kg; in data set [2] (setting [8]), around 200 mg/kg.
As for `CSc1c(Cl)nc(NCCO)nc1N1CCN(C)CC1` [Example 22, 2-N-(β-hydroxyethyl)amino-4-N-methylpiperazino-6-chloro-5-methylthiopyrimidine], the EC50 in data set [3] and in data set [5] was above 10 µg/mL throughout. Moreover, the “solubility in dilute hydrochloric acid” value in the data set “solubility” is “soluble”. Moreover, in the data set “solubility”, the “solubility in ethanol (alcohol)” value is “soluble”. For the same compound, the solubility in water result in the data set “solubility” is “insoluble”. The ED50 in the data set on head twitch is above 100 mg/kg; with mice it was above 100 mg/kg; in the data set with dogs (dogs, orally, apomorphine), 0.85 mg/kg; in the data set on mouse [6], 100 mg/kg; in the data set with serotonine bronchospasms, 0.16 mg/kg. Moreover, the LD50 in data set [2] (setting [7]) is 89 mg/kg; in [2] (setting [8]), around 600 mg/kg.
For `CSc1c(Cl)nc(NC2CCCCC2)nc1N1CCN(C)CC1` [Example 23, 2-Cyclohexylamino-4-N-methylpiperazino-6-chloro-5-methylthiopyrimidine], the EC50 in data set [3] came out at 70 µg/mL (≈ 197 µM); in data set [5], 0.25 µg/mL (≈ 0.702 µM). Besides, the “solubility in dilute hydrochloric acid” value in “solubility” is “soluble”. Further, the “solubility in ethanol (alcohol)” value in “solubility” is “soluble”. Also, the solubility in water result in “solubility” is “insoluble”. For the same compound, the ED50 was above 300 mg/kg with mouse [1]; 67 mg/kg in the data set on head twitch; 100 mg/kg in the data set on mice; 220 mg/kg in the data set with mouse [6]; 300 mg/kg in the data set with rat; 0.3 mg/kg in the data set with serotonine bronchospasms. Further, the LD50 in data set [2] (setting [7]) came to 89 mg/kg.
With `CSc1c(Cl)nc(NCc2ccccc2)nc1N1CCN(C)CC1` [Example 26, 2-Benzylamino-4-N-methylpiperazino-5-methylthio-6-chloropyrimidine], the EC50 in data set [3] was determined as 0.2 µg/mL (≈ 0.55 µM); in data set [5], 0.17 µg/mL (≈ 0.467 µM). The “solubility in dilute hydrochloric acid” value in the data set “solubility” is listed as “scarcely soluble”. The “solubility in dilute methanesulphonic acid” value in “solubility” (dilute methanesulphonic acid) is given as “soluble”. Besides, the solubility in water entry in the data set “solubility” is reported as “soluble”. Also, the ED50 with mouse [1] was 45 mg/kg; in the data set with head twitch, 17 mg/kg; in the data set on mice, 35 mg/kg; in the data set with dogs (dogs, orally, apomorphine), around 2 mg/kg; in the data set on mouse [6], 20 mg/kg; in the data set on rat, 33 mg/kg. Also, the ED50 in the data set on serotonine bronchospasms came to 0.05 mg/kg. In addition, the LD50 is 85 mg/kg in data set [2] (setting [7]) and around 525 mg/kg in data set [2] (setting [8]).
Regarding `CSc1c(Cl)nc(N2CCOCC2)nc1N1CCN(C)CC1` [Example 28, 2-Morpholino-4-N-methylpiperazino-6-chloro-5-methylthiopyrimidine], the figures for the EC50 in [3] and in [5] were 4.5 µg/mL (≈ 13.1 µM) and 1.7 µg/mL (≈ 4.94 µM), respectively. Moreover, the “solubility in dilute hydrochloric acid” value in the data set “solubility” was “soluble”. Moreover, the “solubility in ethanol (alcohol)” value in the data set “solubility” is on record as “soluble”. For the same compound, in “solubility”, the solubility in water result is on record as “insoluble”. Also, the ED50 with head twitch is 70 mg/kg; with mice it was above 100 mg/kg; with dogs (dogs, orally, apomorphine), above 5 mg/kg; in [4] it was above 100 mg/kg; in the data set on mouse [6], 100 mg/kg; with serotonine bronchospasms it was above 0.1 mg/kg. In addition, the LD50 is 110 mg/kg in [2] (setting [7]) and around 400 mg/kg in data set [2] (setting [8]).
`COc1ccc(Nc2nc(Cl)c(SC)c(N3CCN(C)CC3)n2)cc1` [Example 32, 4'-methoxy-2-phenylamino-4-N-methylpiperazino-6-chloro-5-methylthiopyrimidine]: the EC50 in [3] amounted to 5.5 µg/mL (≈ 14.5 µM). In “solubility”, the “solubility in dilute hydrochloric acid” value is on record as “soluble”. Moreover, the solubility in water result in “solubility” is “insoluble”. Besides, the ED50 in the data set on head twitch is 27 mg/kg; in the data set with mice it was above 35 mg/kg; in the data set with mouse [6], 60 mg/kg; with serotonine bronchospasms it was 0.9 mg/kg. In addition, the results for the LD50 in data set [2] (setting [7]) and in data set [2] (setting [8]) were 83 mg/kg and around 495 mg/kg, respectively.

The record behind these values is patent publication US4166852A, “Piperazino-pyrimidines and their use as spasmolytic agents” (priority 1974, dated 1979).
